From article PMC8172577, “A Novel Antimicrobial Peptides From Pine Needles of Pinus densiflora Sieb. et Zucc. Against Foodborne Bacteria” (Frontiers in Microbiology, 2021) come the findings set out here.

Values after ≈ are worked out from the molar mass of the structure shown. Read-outs that look alike come from different tables or passages of the source. Where no end group is shown, it is not given here.

Type in all cases: cell-based
Data set [1] has as its system Staphylococcus aureus ATCC25923. The note with it: for Increased in MIC (fold): compared to the soluble extract. The procedure: (§1) For antimicrobial assays, Escherichia coli ATCC 25922, Pseudomonas aeruginosa ATCC 15692, Staphylococcus aureus ATCC 25923, and Staphylococcus epidermidis ATCC 12228 were obtained from the American Type Culture Collection (Manassas, VA, United States). Salmonella typhimurium KCTC 1926 and Listeria monocytogenes KCTC 3710 were obtained from the Korean Collection for Type Cultures (Jeollabuk-do, Korea).
(§2) Minimum inhibitory concentrations (MICs) of purified PN peptides were assayed according to the Clinical and Laboratory Standards Institute recommendations ([Wiegand et al., 2008]). Briefly, bacterial suspension (5 × 10^5 CFU/ml), obtained by diluting an exponential growth phase culture, was then added into the 96-well plates containing 2-fold serial dilutions of each fraction, the plates were incubated for 18 h at 37°C. MICs of PN peptides were measured in optical density at 600 nm using Versamax™ ELISA Microplate Reader (Molecular Devices, Sunnyvale, CA, United States). PBS, culture media, and melittin were used as growth and growth inhibition controls. The MIC was defined as the lowest concentration of PN peptide that was able to inhibit microbial growth.

Data set [2] deals with Listeria monocytogenes KCTC3710. The note with it: minimal concentration of peptide to inhibit microbial growth; 5 × 10^5 CFU/ml, 18 h at 37°C, OD 600 nm. The method, then:
as §1, §2

The subject of data set [3] is Escherichia coli ATCC25922. The note with it: minimal concentration of peptide to inhibit microbial growth; 5 × 10^5 CFU/ml, 18 h at 37°C, OD 600 nm. The procedure: as §1, §2
The subject of data set [4] is Salmonella typhimurium KCTC1926. The note with it: minimal concentration of peptide to inhibit microbial growth; 5 × 10^5 CFU/ml, 18 h at 37°C, OD 600 nm. The procedure:
as §1, §2

The subject of data set [5] is mouse red blood cells (mRBCs). The data set can be described thus: Hemolytic activity. The note with it: 60 min at 37°C. The procedure:
Hemolysis was determined using the mouse red blood cells (mRBCs). Fresh mRBCs were collected in PBS and washed three times with PBS (final mRBC concentration, 8% v/v). […] Hemolytic activity was monitored at an absorbance (A) of 414 nm and calculated as a positive control [0.1% Triton X-100 (Atriton)] and negative control [PBS (Ablank)]. The resulting values of cells that underwent hemolysis were calculated according to equation ([Park et al., 2008]):
(1) Hemolysis=[(Asample−Ablank)/(Atriton−Ablank)]×100%

For data set [6], the system named is HaCaT (human keratinocytes) cells. The data set can be described thus: Cytotoxicity, MTT assay, HaCaT. The method, then:
(§3) The cytotoxic effect of PN peptides was assessed against HaCaT (human keratinocytes) and RAW264.7 (mouse macrophages) cells cultured in 96-well plates at a density of 2 × 10^4 cells/well in Dulbecco’s modified Eagle medium (DMEM) containing 10% fetal bovine serum. MTT [3-(4,5-dimethylthiazol-2-yl)-2,5-diphenyltetrazolium bromide] assays were used to evaluate cytotoxicity. PN peptides (0–200 μg/ml) were added with the cells for 24 h at 37°C. Subsequently, MTT (0.5 mg/ml) was added to each well and incubated for 4 h at 37°C After incubation, formazan crystals produced was dissolved in dimethyl sulfoxide, and the absorbance at 570 nm was measured and cytotoxicity was determined as a percentage of 100% cytotoxic control (0.1% Triton X-100; [Park et al., 2008]). Melittin was used as the control (reference) peptide.

Data set [7] concerns RAW264.7 (mouse macrophages) cells. The data set can be described thus: Cytotoxicity, MTT assay, RAW264.7. The note with it: 12.5 μg/ml, 24 h. The method, then: as §3
Setting [8] is: minimal concentration of peptide to inhibit microbial growth, 5 × 10^5 CFU/ml, 18 h at 37°C, OD 600 nm.

FKFLARTGKFL-NH2 [PN5-NH2]: the minimal inhibitory concentration (MIC) – broadly, the lowest concentration found to suppress growth – in data set [1] (setting [8]) is 16 µg/mL; in data set [2], 32 µg/mL; in data set [3] it was 64 µg/mL; in data set [4], 32 µg/mL.

As to `CC[C@H](C)[C@H](NC(=O)CN)C(=O)NCC(=O)N[C@@H](C)C(=O)N[C@H](C(=O)N[C@@H](CC(C)C)C(=O)N[C@@H](CCCCN)C(=O)N[C@H](C(=O)N[C@@H](CC(C)C)C(=O)N[C@H](C(=O)N[C@H](C(=O)NCC(=O)N[C@@H](CC(C)C)C(=O)N1CCC[C@H]1C(=O)N[C@@H](C)C(=O)N[C@@H](CC(C)C)C(=O)N[C@H](C(=O)N[C@@H](CO)C(=O)N[C@@H](Cc1c[nH]c2ccccc12)C(=O)N[C@H](C(=O)N[C@@H](CCCCN)C(=O)N[C@@H](CCCNC(=N)N)C(=O)N[C@@H](CCCCN)C(=O)N[C@@H](CCCNC(=N)N)C(=O)N[C@@H](CCC(N)=O)C(=O)N[C@@H](CCC(N)=O)C(N)=O)[C@@H](C)CC)[C@@H](C)CC)[C@@H](C)O)[C@@H](C)O)C(C)C)C(C)C` [Melittin, reference compound], the MIC in data set [2] is 4 µg/mL (≈ 1.41 µM); in data set [4], 2 µg/mL (≈ 0.703 µM). In addition, in data set [5] (3 μg/ml, 8% v/v mRBCs), the “hemolysis at the lowest concentration” value was “induced hemolysis”. In addition, the “lysis (cytotoxicity)” value in data set [6] (12.5 μg/ml, 24 h) amounted to 100%; in data set [7], 100%.

Turning to “FKFLARTGKFL [PN-#5, peptide purified from pine needles of Pinus densiflora by RP-HPLC, peak 5]”, the “Increased in MIC (fold)” value turned out to be 12.5 fold in data set [1] (after First C18 RP-HPLC) and 234.4 fold in data set [1] (after Second C18 RP-HPLC). Also, the minimal inhibitory concentration (MIC) in data set [1] (fraction after First C18 RP-HPLC, S. aureus ATCC25923) is 600 µg/mL; in data set [1] (fraction after Second C18 RP-HPLC, S. aureus ATCC25923) it was 32 µg/mL; in data set [1] (setting [8]), 32 µg/mL; in data set [2], 32 µg/mL; in data set [3] it was 64 µg/mL; in data set [4] it was 64 µg/mL.

Regarding FKFLARTGKFL [PN5], the MIC in data set [1] (setting [8]) came out at 32 µg/mL; in data set [2] it was 32 µg/mL; in data set [3], 64 µg/mL; in data set [4] it was 64 µg/mL. The hemolysis entry in data set [5] (200 μg/ml, 8% v/v mRBCs in PBS, A414, vs 0.1% Triton X-100, n = 3) was “approximately 5%”. In data set [6] (200 μg/ml, 24 h at 37°C, vs 0.1% Triton X-100, n = 3), this compound registered a cytotoxicity of 19%.
